Test [1] has as its target hASK1 (Homo sapiens (Human), UniProt Q99683). In words: ASK1 biochemical assay (IMAP technology). The conditions noted are these: 150 μM ATP, 6 nM hASK1. The source says: (§1) IMAP® technology provides a homogeneous assay applicable to a wide variety of kinases, phosphatases, and phosphodiesterases without regard for substrate peptide sequence. The assay is a simple mix-and-read procedure allowing accurate determination of enzyme activity. Based on the specific, high-affinity interaction of phospho groups with trivalent metal-containing nanoparticles (beads), IMAP is a generic, non-antibody-based platform to assess kinase, phosphatase, and phosphodiesterase activity. An enzyme reaction is performed using fluorescently labeled substrate. Addition of the IMAP Binding System stops the enzyme reaction and initiates binding of the beads to phosphorylated substrates. Binding of the substrate to the beads, which correlates to enzyme activity, can be detected using either FP or TR-FRET as a readout.
Apoptosis Signal-regulating Kinase (ASK1), also known as MAP3K5, is a member of the mitogen-activated protein kinase kinase kinase (MAP3K) family of kinases. It activates the Jnk and p38 pathways through the MAP2Ks MKK4/7 and MKK3/6 (respectively). This ASK1 IMAP assay uses the following IMAP peptide: RP7140-T2 (5TAMRA-GTFRAAIRRLAARRR-OH, SEQ ID NO: 1). The assay has been configured to run at Km for ATP ([…]) so that it will be sensitive to ATP-competitive inhibitors. The final assay conditions are […], 1 mM DTT, 200 nM peptide and 6 nM ASK1 (total protein). The binding reagent is made up in 100% A at a final dilution of 1:200.
(§2) KIT IMAP FP, Cat. No. R8127; Reaction Buffer-Tween (5× conc.), Molecular Devices, Cat. No. R7436; Diluted 1:5 with H2O and containing DTT (1 mM from 1M stock); Progressive Binding Buffer (PBB) A (5× conc.), Molecular Devices, Cat. No. R7282; Progressive Binding Reagent (PB Reagent), Molecular Devices, Cat. No. R7284; Enzyme Solution (containing 2× Ask1 in Reaction buffer); Substrate Solution (containing 2× peptide substrate in Reaction buffer, and 2×150 μM ATP in Reaction buffer); Bead Buffer (Progressive Binding Buffer A diluted 1:5 with H2O); Bead Solution (Bead Buffer containing 1:200 Progressive Binding Reagent (2×))
100 nL of test compound in 100% DMSO was added to 384-well plates. For a dose response experiment a 1 in 4 dilution of compound (25 μM top final concentration) was used. 3 μL of hASK1 (6 nM), hASK2 (25 nM) or rASK1 (15 nM) was added to each well except in the control well to which 3 μL buffer was added. 3 μL of substrate solution was added to each well and the plates were incubated for 4 h at room temperature. After which time 6 μL of IMAP™ Bead Solution (Progressive Binding Buffer A+PB Reagent; final dilution 1:100) was added to each well and spun for 1 minute at 1000 rpm. The plates were then incubated for 2 h at room temperature after which time the plates were read on a Perkin Elmer EnVision plate reader.
Calculation of IC50 data, curves and QC analysis was made by using Excel tools and GraphPadPrism software, v. 5.03. Briefly, individual concentration-effect curves are generated by plotting the logarithm of the tested concentration of tested compounds (X) vs. corresponding percent inhibition values (Y) using least squares (ordinary) fit. Up to ¼ points from high/low controls are allowed to be excluded, but only if values are >Avg.±1*SD. Fitting equation used for IC50 calculation=log(inhibitor) vs. response−Variable slope (four parameters). Calculated results: Calc 1: mP value for FP measurement=1000*(S−G*P)/(S+G*P) where S=<detector 2 or FP-BodipyTAMRA_Ex531-Em579-optimized(1) channel 2>P=<detector 1 or FP-BodipyTAMRA_Ex531-Em579-optimized(1) channel 1>G=G-factor. Gain=100. Top constrain is used only if top values are not correctly calculated.
Minimum constrained if less than −30% I or greater than 30% I. Maximum constrained if less than 70% I or greater than 130% I. Z′-Factor Target>0.4. Hill Slope range 0.5 to 5.

The target in test [2] is T1, ASK2 (Homo sapiens (Human), UniProt O95382). The test can be described thus: ASK2 biochemical assay (IMAP technology). The conditions noted are these: 25 nM hASK2.
T1 sequence (O95382 whole entry): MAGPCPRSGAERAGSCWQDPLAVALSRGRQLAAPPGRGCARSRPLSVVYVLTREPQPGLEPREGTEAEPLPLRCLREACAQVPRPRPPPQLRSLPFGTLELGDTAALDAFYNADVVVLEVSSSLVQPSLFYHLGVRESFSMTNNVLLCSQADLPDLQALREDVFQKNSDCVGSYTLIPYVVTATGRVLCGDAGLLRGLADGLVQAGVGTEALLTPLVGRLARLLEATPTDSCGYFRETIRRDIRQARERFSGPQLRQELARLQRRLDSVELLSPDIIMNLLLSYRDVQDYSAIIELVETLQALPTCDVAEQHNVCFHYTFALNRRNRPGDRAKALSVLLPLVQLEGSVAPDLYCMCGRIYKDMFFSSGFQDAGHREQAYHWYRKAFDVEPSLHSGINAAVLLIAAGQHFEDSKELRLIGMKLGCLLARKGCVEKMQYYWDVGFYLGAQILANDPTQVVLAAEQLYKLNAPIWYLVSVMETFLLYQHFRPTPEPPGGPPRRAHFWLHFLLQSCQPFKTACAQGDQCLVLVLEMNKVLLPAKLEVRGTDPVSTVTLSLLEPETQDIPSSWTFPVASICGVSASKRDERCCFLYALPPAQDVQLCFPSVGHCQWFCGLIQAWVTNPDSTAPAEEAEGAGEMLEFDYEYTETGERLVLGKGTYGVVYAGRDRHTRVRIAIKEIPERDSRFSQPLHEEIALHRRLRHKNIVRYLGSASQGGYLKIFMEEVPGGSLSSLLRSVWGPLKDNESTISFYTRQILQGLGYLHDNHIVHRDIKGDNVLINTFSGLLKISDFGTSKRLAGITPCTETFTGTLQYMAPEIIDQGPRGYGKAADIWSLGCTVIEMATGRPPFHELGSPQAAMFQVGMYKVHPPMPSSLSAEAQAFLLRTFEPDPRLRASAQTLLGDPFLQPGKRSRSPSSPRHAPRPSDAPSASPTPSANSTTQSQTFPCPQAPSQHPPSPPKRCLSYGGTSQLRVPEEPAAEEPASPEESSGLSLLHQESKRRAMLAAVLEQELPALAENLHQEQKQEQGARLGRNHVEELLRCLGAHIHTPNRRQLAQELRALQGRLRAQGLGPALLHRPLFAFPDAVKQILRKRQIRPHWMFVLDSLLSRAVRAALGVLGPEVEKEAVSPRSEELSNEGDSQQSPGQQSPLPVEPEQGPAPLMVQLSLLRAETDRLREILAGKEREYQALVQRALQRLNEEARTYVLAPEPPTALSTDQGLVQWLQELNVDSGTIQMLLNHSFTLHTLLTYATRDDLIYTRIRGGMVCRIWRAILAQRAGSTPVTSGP
Excerpt: as §1, §2
100 nL of test compound in 100% DMSO was added to 384-well plates. […] The plates were then incubated for 2 h at room temperature after which time the plates were read on a Perkin Elmer EnVision plate reader.
Calculation of IC50 data, curves and QC analysis was made by using Excel tools and GraphPadPrism software, v. […] Calculated results: Calc 1: mP value for FP measurement=1000*(S−G*P)/(S+G*P) where S=<detector 2 or FP-BodipyTAMRA_Ex531-Em579-optimized(1) channel 2>P=<detector 1 or FP-BodipyTAMRA_Ex531-Em579-optimized(1) channel 1>G=G-factor. […] Top constrain is used only if top values are not correctly calculated. […]

Test [3] deals with T1, ASK2. The test can be described thus: ASK2 biochemical assay (AlphaScreen technology, MKK7 phosphorylation). Conditions: 150 μM ATP, 400 nM MKK7, 2 nM ASK2. An excerpt: ASK1 and ASK2 biochemical activities were also quantified using AlphaScreen technology which measures the degree of phosphorylation of a protein substrate (MKK7). AlphaScreen technology is based on the binding of a substrate to two types of beads, acceptor and donor. Binding to one bead is through the tag of the substrate protein. Binding of the second bead is through phosphospecific binding of antibody to the phosphosite of the substrate. This forms a sandwich, with the acceptor and donor beads in close proximity. When the donor beads are excited by light in the 680 nm range, a singlet oxygen is released and causes emission of light from the acceptor in the 620 nm range which can be detected using a suitable plate reader.
The phosphorylation site on MKK7 (Ser271/Thr275) is then recognised by a phosphospecific antibody. The phosphospecific antibody is bound to the AlphaScreen acceptor beads through a Protein-A interaction. Phosphorylation of MKK7 by ASK1 or ASK2 subsequently facilitates the bringing together of the donor and acceptor beads into close proximity whereupon the transfer of the singlet oxygen leads to the generation of the AlphaScreen signal.
The assay was configured to run using the following conditions (final concentrations): 150 μM ATP; 400 nM MKK7; 0.8 nM ASK1 and 2 nM ASK2.
100 nL of test compound (starting concentration 6 μM, 11 concentrations with 3 fold serial dilutions) in 100% DMSO was added to low volume 384 well plates. 2.5 μl of ASK1 or ASK2 was added to each well except in the control wells to which 2.5 μl buffer was added. 2.5 μl of MKK7 solution was added to all wells. The plate was incubated for 60 minutes at room temperature. Protein-A acceptor beads and phospho-specific antibody were incubated for 30 minutes and then 2.5 μl of Protein-A acceptor beads/phospho-specific antibody mix (2.5 μg/ml acceptor beads final concentration and 1/800 antibody final dilution) was added to each well. […] The plate was incubated for a further 60 minutes at room temperature, following which the plate was read on a Perkin Elmer Enspire plate reader. […]
On the technique in general: Alpha assays give light when donor and acceptor beads are brought close together.

Each structure is given as a SMILES string.

Chain of hASK1 (Q99683 whole entry): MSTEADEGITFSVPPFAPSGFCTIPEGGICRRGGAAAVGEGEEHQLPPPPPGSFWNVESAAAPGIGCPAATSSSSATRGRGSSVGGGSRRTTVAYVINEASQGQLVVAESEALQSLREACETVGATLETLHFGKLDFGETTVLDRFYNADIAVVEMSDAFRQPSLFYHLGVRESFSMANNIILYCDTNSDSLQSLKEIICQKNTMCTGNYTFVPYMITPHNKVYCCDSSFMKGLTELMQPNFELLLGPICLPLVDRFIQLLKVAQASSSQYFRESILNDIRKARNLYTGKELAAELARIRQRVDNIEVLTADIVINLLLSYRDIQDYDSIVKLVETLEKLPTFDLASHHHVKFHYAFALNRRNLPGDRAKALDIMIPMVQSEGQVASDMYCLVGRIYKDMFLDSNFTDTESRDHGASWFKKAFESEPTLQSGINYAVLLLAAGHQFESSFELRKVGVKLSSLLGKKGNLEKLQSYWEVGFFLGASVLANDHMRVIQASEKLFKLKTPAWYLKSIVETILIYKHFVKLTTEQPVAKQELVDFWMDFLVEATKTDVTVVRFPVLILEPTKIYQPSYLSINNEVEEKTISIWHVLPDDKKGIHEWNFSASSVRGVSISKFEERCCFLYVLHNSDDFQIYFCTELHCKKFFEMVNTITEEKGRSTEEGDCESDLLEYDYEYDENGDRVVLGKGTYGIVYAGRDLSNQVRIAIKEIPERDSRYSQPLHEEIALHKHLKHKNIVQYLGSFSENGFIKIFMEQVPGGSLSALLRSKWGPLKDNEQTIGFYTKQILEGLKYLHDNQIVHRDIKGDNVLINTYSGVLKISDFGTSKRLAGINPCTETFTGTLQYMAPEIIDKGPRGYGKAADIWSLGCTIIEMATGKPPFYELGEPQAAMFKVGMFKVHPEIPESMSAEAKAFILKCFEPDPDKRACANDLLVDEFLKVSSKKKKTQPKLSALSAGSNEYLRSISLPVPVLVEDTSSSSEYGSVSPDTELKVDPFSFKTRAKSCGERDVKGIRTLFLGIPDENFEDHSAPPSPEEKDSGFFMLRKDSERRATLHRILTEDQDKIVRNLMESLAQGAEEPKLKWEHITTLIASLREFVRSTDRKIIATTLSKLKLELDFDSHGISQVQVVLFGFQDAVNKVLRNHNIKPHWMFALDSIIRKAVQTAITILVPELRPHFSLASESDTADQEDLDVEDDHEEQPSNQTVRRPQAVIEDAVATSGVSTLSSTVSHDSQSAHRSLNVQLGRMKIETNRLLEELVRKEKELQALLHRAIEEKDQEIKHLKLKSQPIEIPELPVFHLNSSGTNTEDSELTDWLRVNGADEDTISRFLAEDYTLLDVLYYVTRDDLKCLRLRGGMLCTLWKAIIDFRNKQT

For `Nc1cc(C(=O)NC2CCN(c3ncnc4[nH]cc(Cl)c34)CC2)c(F)cn1` [Compound 5, 2-amino-N-[1-(5-chloro-7H-pyrrolo[2,3-d]pyrimidin-4-yl)-4-piperidyl]-5-fluoro-pyridine-4-carboxamide], the “Inhibition (pIC50) ASK1” value in test [1] is given as 8.43/—.
Turning to `Cc1c[nH]c2ncnc(N3CCC(NC(=O)c4cc(N)ncc4F)CC3)c12` [Compound 1, 2-amino-5-fluoro-N-[1-(5-methyl-7H-pyrrolo[2,3-d]pyrimidin-4-yl)-4-piperidyl]pyridine-4-carboxamide], the “Inhibition (pIC50) ASK1” value in test [1] was determined as 8.24. Moreover, the entries for the “Inhibition (pIC50) ASK2” value in test [2] and in test [3] were 7.96 and 7.71, respectively.
For the molecule `Nc1cc(C(=O)NC2CCN(c3ccnc4[nH]cc(Cl)c34)CC2)c(F)cn1` [Compound 7, 2-amino-N-[1-(3-chloro-1H-pyrrolo[2,3-b]pyridin-4-yl)-4-piperidyl]-5-fluoro-pyridine-4-carboxamide], the “Inhibition (pIC50) ASK1” value in test [1] is 8.24/—.
`Cc1c[nH]c2ncnc(N3CCC(NC(=O)c4cc(N)ncc4Cl)CC3)c12` [Compound 3, 2-amino-5-chloro-N-[1-(5-methyl-7H-pyrrolo[2,3-d]pyrimidin-4-yl)-4-piperidyl]-pyridine-4-carboxamide]: the “Inhibition (pIC50) ASK1” value in test [1] is reported as 8.05/—. Further, the “Inhibition (pIC50) ASK2” value in test [3] was 7.8.
Consider `Cc1cnc(N)cc1C(=O)NC1CCN(c2ncnc3[nH]cc(C)c23)CC1` [Compound 2, 2-amino-5-methyl-N-[1-(5-methyl-7H-pyrrolo[2,3-d]pyrimidin-4-yl)-4-piperidyl]pyridine-4-carboxamide], for which the “Inhibition (pIC50) ASK1” value in test [1] worked out at 8.17. The “Inhibition (pIC50) ASK2” value in test [2] is 8.08.
Take `Nc1cc(C(=O)NC2CCN(c3ncnc4[nH]cc(Cl)c34)CC2)ccn1` [Compound 4, 2-amino-N-[1-(5-chloro-7H-pyrrolo[2,3-d]pyrimidin-4-yl)-4-piperidyl]pyridine-4-carboxamide]: the “Inhibition (pIC50) ASK1” value in test [1] is 8.46. In addition, the “Inhibition (pIC50) ASK2” value is 8.19 in test [2] and 8.2 in test [3].
`Cc1c[nH]c2ncc(C#N)c(N3CCC(NC(=O)c4cc(N)ncc4F)CC3)c12` [Compound 6, 2-amino-N-[1-(5-cyano-3-methyl-1H-pyrrolo[2,3-b]pyridin-4-yl)-4-piperidyl]-5-fluoro-pyridine-4-carboxamide]: the “Inhibition (pIC50) ASK1” value in test [1] is given as 8.98/—.

(Values after patent US11136325B2, “Pyrrolopyrimidine and pyrrolopyridine derivatives” (GALAPAGOS NV, priority 2017, dated 2021).)
